Tests used:
[1] = Adult Study (Forest study): 8-week clinical trial of inhaled flunisolide vs. standard inhaled corticosteroid therapy, change in FEV1; assay type: in vivo, human; conditions: on inhaled corticosteroids, evaluated at 8 weeks; mean ± standard deviation; N 470
Excerpt: The Forest study (also known as the Adult Study) was an 8 week clinical trial used to compare the effect of once daily high dose inhaled flunisolide vs. “standard inhaled corticosteroid therapy” (performed by Forest Pharmaceuticals). […] Of these participants, 7% were African American, 3% were Hispanic and 2% were other. As 88% of these participants were Caucasian, analyses focus on this group. Additionally, females accounted for 58.5% of the participants.
The Adult Study was a multicenter 8-week randomized clinical trial comparing the effect of once-daily high-dose inhaled flunisolide vs. standard inhaled corticosteroid therapy. Inclusion criteria were a history of asthma, >12% improvement in FEV1 with albuterol and using inhaled steroids at randomization. Exclusion criteria were non-asthma pulmonary disease, smoking (≧10 pack-years) and recent asthma exacerbations requiring systemic steroids. Subjects were phoned weekly and had spirometry at 4 and 8 weeks.

[2] = CAMP (Childhood Asthma Management Program): clinical trial of inhaled budesonide vs. nedocromil vs. placebo, change in FEV1; assay type: in vivo, human
Excerpt: The Childhood Asthma Management Program (CAMP) was a randomized, double-masked, long term clinical trial testing the safety and efficacy of inhaled budesonide vs. nedocromil vs. placebo (27). The mean duration of follow-up was 4 years (28). 311 children (males and females for a variety of race and age groups) were randomized to the steroid group, with a mean improvement of 6.8% in their FEV1 at one year. Of these, 65% were Caucasian. These formed the basis for our replication sample.
CAMP is a multicenter, randomized, double-blinded clinical trial testing the safety and efficacy of inhaled budesonide vs. nedocromil vs. placebo over a mean of 4.3 years. Trial design and methodology have been published (27, 28). The replication sample subjects were the Caucasian CAMP children randomized to the steroid group, evaluated at their 2 month follow-up visit.
(§1) The primary outcome measure of the association analyses was percent change in FEV1 over time in response to inhaled steroids, defined as the FEV1 difference from baseline to eight weeks for the Adult Study and CAMP, and to six weeks in ACRN, divided by the baseline value.

[3] = tested on: β2-adrenergic receptor gene; conditions: cited from earlier work
[4] = ACRN (SOCS/SLIC) 6-week run-in period on inhaled triamcinolone, change in FEV1; assay type: in vivo, human; conditions: on inhaled corticosteroids, evaluated at 6 weeks; mean ± standard deviation; N 336
Excerpt: Two completed trials conducted by the ACRN (Asthma Clinical Research Network), the salmeterol or corticosteroids (SOCS) (54) and salmeterol±inhaled corticosteroids (SLIC)
Details regarding the entry criteria, run-in period and randomization have been published with the primary trial results (54, 55). Of the 339 subjects eligible for randomization, 336 had DNA available; 66.7% of these were Caucasian, forming the basis of the second replication sample.
as §1

CC1(C)O[C@@H]2C[C@H]3[C@@H]4C[C@H](F)C5=CC(=O)C=C[C@]5(C)[C@H]4[C@@H](O)C[C@]3(C)[C@]2(C(=O)CO)O1 [Flunisolide]
Mean Change in FEV1 [1]: 7.0 ± 19.3%

CCCC1O[C@@H]2C[C@H]3[C@@H]4CCC5=CC(=O)C=C[C@]5(C)[C@H]4[C@@H](O)C[C@]3(C)[C@]2(C(=O)CO)O1 (stereo partly drawn) [Budesonide]
mean improvement in FEV1 ([2]; at one year, 311 children randomized to the steroid group): 6.8%
Mean Change in FEV1 ([2]; on inhaled corticosteroids, evaluated at 8 weeks, mean ± standard deviation, N 311): 8.3 ± 14.1%

CC(C)(C)NCC(O)c1ccc(O)c(CO)c1 (stereo not drawn) [albuterol]
acute bronchodilator response ([3]; Arg/Arg children than Gly/Gly children): more likely
peak expiratory flow rates ([3]; regular utilization, Arg/Arg at position 16, compared to Arg/Arg receiving prn and Gly/Gly): significantly decrease

C[C@]12C=CC(=O)C=C1CC[C@H]1[C@@H]3C[C@@H](O)[C@](O)(C(=O)CO)[C@@]3(C)C[C@H](O)[C@@]12F [Triamcinolone]
Mean Change in FEV1 [4]: 6.7 ± 19.7%

Source: patent US20040157240A1, “Diagnostic assay and related products” (The Brigham & Women's Hospital, Inc., priority 2002, published 2004)
